Reference: PubChem BioAssay AID256 (DTP/NCI, 2004)
Toxic doses and inconclusive results are not listed. How the source made its calls: active means survival T/C of 150% or more; inactive means T/C below 125% in these data.

Test system: CD2F1 mice, L1210 leukemia ip, survival T/C
Experiment: NCI In Vivo Anticancer Drug Screen. Data for tumor model L1210 Leukemia (intraperitoneal) in CD2F1 (CDF1) mice
Settings: higher = longer survival
Summary of the method: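 Activity against a transplanted murine tumor was judged by comparing the compound group with a vehicle group. The outcome in the treated animals was divided by that in the controls.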

[1] = endpoint: mean survival time, dose: 100.0 mg/kg/injection, schedule: Q04DX002 (ip), vehicle: saline with Tween-80
[2] = endpoint: mean survival time, dose: 200.0 mg/kg/injection, schedule: Q04DX002 (ip), vehicle: saline with Tween-80
[3] = endpoint: mean survival time, dose: 50.0 mg/kg/injection, schedule: Q01DX009 (ip), vehicle: saline with Tween-80
[4] = endpoint: mean survival time, dose: 100.0 mg/kg/injection, schedule: Q01DX009 (ip), vehicle: saline
[5] = endpoint: mean survival time, dose: 200.0 mg/kg/injection, schedule: Q01DX009 (ip), vehicle: saline
[6] = endpoint: mean survival time, dose: 100.0 mg/kg/injection, schedule: Q01DX001 (ip), vehicle: saline
[7] = endpoint: mean survival time, dose: 100.0 mg/kg/injection, schedule: Q01DX009 (ip), vehicle: saline with Tween-80
[8] = endpoint: mean survival time, dose: 200.0 mg/kg/injection, schedule: Q01DX009 (ip), vehicle: saline with Tween-80
[9] = endpoint: mean survival time, dose: 200.0 mg/kg/injection, schedule: Q04DX003 (ip), vehicle: saline
[10] = endpoint: mean survival time, dose: 400.0 mg/kg/injection, schedule: Q04DX003 (ip), vehicle: saline
[11] = endpoint: mean survival time, dose: 100.0 mg/kg/injection, schedule: Q04DX003 (ip), vehicle: saline with Tween-80
[12] = endpoint: mean survival time, dose: 200.0 mg/kg/injection, schedule: Q04DX003 (ip), vehicle: saline with Tween-80
[13] = endpoint: mean survival time, dose: 400.0 mg/kg/injection, schedule: Q01DX009 (ip), vehicle: saline with Tween-80
[14] = endpoint: mean survival time, dose: 400.0 mg/kg/injection, schedule: Q04DX003 (ip), vehicle: saline with Tween-80

Measured: T/C

Oc1ccccc1C=NCC1CCCC[N-]1.Oc1ccccc1C=NCC1CCCC[N-]1.[Ni+2] (stereo unspecified)
inactive: endpoint: mean survival time, dose: 25.0 mg/kg/injection, schedule: Q04DX002 (ip), vehicle: saline with Tween-80 101 % of control | endpoint: mean survival time, dose: 50.0 mg/kg/injection, schedule: Q04DX002 (ip), vehicle: saline with Tween-80 98 % of control | endpoint: mean survival time, dose: 100.0 mg/kg/injection, schedule: Q01DX001 (ip), vehicle: saline with Tween-80 96 % of control | [1] 96 % of control | endpoint: mean survival time, dose: 132.0 mg/kg/injection, schedule: Q01DX001 (ip), vehicle: saline with Tween-80 101 % of control | endpoint: mean survival time, dose: 200.0 mg/kg/injection, schedule: Q01DX001 (ip), vehicle: saline with Tween-80 102 % of control | [2] 101 % of control | endpoint: mean survival time, dose: 300.0 mg/kg/injection, schedule: Q01DX001 (ip), vehicle: saline with Tween-80 107 % of control

CC1(C)C(=O)C(C)(C)C1=NNc1ccc([N+](=O)[O-])cc1[N+](=O)[O-]
inactive: endpoint: median survival time, dose: 50.0 mg/kg/injection, schedule: Q04DX002 (ip), vehicle: saline with Tween-80 90 % of control | endpoint: median survival time, dose: 100.0 mg/kg/injection, schedule: Q04DX002 (ip), vehicle: saline with Tween-80 100 % of control | endpoint: median survival time, dose: 200.0 mg/kg/injection, schedule: Q04DX002 (ip), vehicle: saline with Tween-80 90 % of control | endpoint: median survival time, dose: 400.0 mg/kg/injection, schedule: Q04DX002 (ip), vehicle: saline with Tween-80 100 % of control

COc1cc(CNC(=O)/C(C)=C/Cl)ccc1O
inactive: endpoint: mean survival time, dose: 12.5 mg/kg/injection, schedule: Q01DX009 (ip), vehicle: saline with Tween-80 96 % of control | endpoint: mean survival time, dose: 25.0 mg/kg/injection, schedule: Q01DX009 (ip), vehicle: saline with Tween-80 95 % of control | [3] 101 % of control

CNCC(O)c1ccc(O)cc1 (stereo unspecified)
inactive: [4] 94 % of control | [5] 91 % of control

CC(=O)c1ccc(CCCCCCCC(=O)O)o1
inactive: endpoint: mean survival time, dose: 50.0 mg/kg/injection, schedule: Q01DX001 (ip), vehicle: Klucel (hydroxypropylcellulose) (HPC) 97 % of control | endpoint: mean survival time, dose: 100.0 mg/kg/injection, schedule: Q01DX001 (ip), vehicle: Klucel (hydroxypropylcellulose) (HPC) 101 % of control | endpoint: mean survival time, dose: 200.0 mg/kg/injection, schedule: Q01DX001 (ip), vehicle: Klucel (hydroxypropylcellulose) (HPC) 94 % of control

CCC(/C=N\O)CC
inactive: [6] 100 % of control | endpoint: mean survival time, dose: 200.0 mg/kg/injection, schedule: Q01DX001 (ip), vehicle: saline 108 % of control

O=[N+]([O-])c1cc[n+]([O-])cc1
inactive: endpoint: mean survival time, dose: 75.0 mg/kg/injection, schedule: Q01DX001 (ip), vehicle: saline 106 % of control

COc1ccc2c(c1C)CN1CCc3cc4c(cc3C1=C2)OCO4
inactive: endpoint: mean survival time, dose: 75.0 mg/kg/injection, schedule: Q01DX001 (ip), vehicle: other 94 % of control | endpoint: mean survival time, dose: 150.0 mg/kg/injection, schedule: Q01DX001 (ip), vehicle: other 88 % of control | endpoint: mean survival time, dose: 300.0 mg/kg/injection, schedule: Q01DX001 (ip), vehicle: other 88 % of control

CCCCC#CC1CCCC1 (tested in a mixture with another compound)
inactive: [3] 103 % of control | [7] 100 % of control | [8] 100 % of control

CC12CCC(=O)C=C1CCCC2=O (stereo unspecified)
inactive: endpoint: mean survival time, dose: 50.0 mg/kg/injection, schedule: Q01DX009 (ip), vehicle: saline 98 % of control | [4] 96 % of control

CC(=O)OCc1ccc(/C=N/Nc2ccc([N+](=O)[O-])cc2[N+](=O)[O-])cc1Br
inactive: [9] 108 % of control | [10] 100 % of control

CCOC(=O)CC/C=C\Cc1c(OC)c(C)c2c(c1OC(=O)Nc1ccc(C(C)=O)cc1)C(=O)OC2
inactive: [1] 121 % of control

O=C1CC(c2ccccc2)=NN1c1ccccc1
inactive: endpoint: mean survival time, dose: 100.0 mg/kg/injection, schedule: Q04DX003 (ip), vehicle: Klucel (hydroxypropylcellulose) (HPC) 98 % of control | endpoint: mean survival time, dose: 200.0 mg/kg/injection, schedule: Q04DX003 (ip), vehicle: Klucel (hydroxypropylcellulose) (HPC) 95 % of control | endpoint: mean survival time, dose: 400.0 mg/kg/injection, schedule: Q04DX003 (ip), vehicle: Klucel (hydroxypropylcellulose) (HPC) 101 % of control

CC(C)=CC1C(C(=O)OCc2ccc(C)cc2C)C1(C)C (stereo unspecified)
inactive: endpoint: mean survival time, dose: 50.0 mg/kg/injection, schedule: Q01DX001 (ip), vehicle: saline 94 % of control | [6] 91 % of control | [4] 96 % of control | endpoint: mean survival time, dose: 100.0 mg/kg/injection, schedule: Q04DX003 (ip), vehicle: saline 87 % of control | [5] 96 % of control | [9] 87 % of control | endpoint: mean survival time, dose: 400.0 mg/kg/injection, schedule: Q01DX001 (ip), vehicle: saline 100 % of control | endpoint: mean survival time, dose: 400.0 mg/kg/injection, schedule: Q01DX009 (ip), vehicle: saline 102 % of control | [10] 94 % of control

CN(C)C1c2ccccc2-c2ccc(NC(=O)C(F)(F)F)cc21 (stereo unspecified)
inactive: endpoint: mean survival time, dose: 50.0 mg/kg/injection, schedule: Q01DX001 (ip), vehicle: carboxymethylcellulose (CMC) 107 % of control | endpoint: mean survival time, dose: 100.0 mg/kg/injection, schedule: Q01DX001 (ip), vehicle: carboxymethylcellulose (CMC) 92 % of control | endpoint: mean survival time, dose: 200.0 mg/kg/injection, schedule: Q01DX001 (ip), vehicle: carboxymethylcellulose (CMC) 95 % of control | endpoint: mean survival time, dose: 400.0 mg/kg/injection, schedule: Q01DX001 (ip), vehicle: carboxymethylcellulose (CMC) 113 % of control

CCCCCCC[CH2][Sn]1([CH2]CCCCCCC)[O]C2C(CO)OC(n3ccc4c(N)ncnc43)C2[O]1 (stereo unspecified)
inactive: endpoint: mean survival time, dose: 0.78 mg/kg/injection, schedule: Q01DX005 (ip), vehicle: other 110 % of control | endpoint: mean survival time, dose: 1.56 mg/kg/injection, schedule: Q01DX005 (ip), vehicle: other 107 % of control | endpoint: mean survival time, dose: 3.13 mg/kg/injection, schedule: Q01DX005 (ip), vehicle: other 115 % of control | endpoint: mean survival time, dose: 6.25 mg/kg/injection, schedule: Q01DX005 (ip), vehicle: other 102 % of control

CCOC(=O)c1ccc(N(CC)CC)cc1
inactive: [7] 95 % of control | [11] 104 % of control | [8] 92 % of control | [12] 98 % of control | [13] 95 % of control | [14] 94 % of control

NC(=O)NC1CCCC1
inactive: [7] 107 % of control | [8] 107 % of control | [13] 107 % of control

COC(=O)c1ccc([N+](=O)[O-])cc1C(=O)OC
inactive: [11] 100 % of control | [12] 108 % of control | [14] 102 % of control

O=C(NCCC1CC=CCC1)c1ccccc1 (stereo unspecified)
inactive: [7] 97 % of control | [8] 95 % of control | [13] 103 % of control

c1cc2c(ncn3nnnc23)[nH]1
inactive: endpoint: mean survival time, dose: 25.0 mg/kg/injection, schedule: Q01DX009 (ip), vehicle: Klucel (hydroxypropylcellulose) (HPC) 91 % of control | endpoint: mean survival time, dose: 50.0 mg/kg/injection, schedule: Q01DX009 (ip), vehicle: Klucel (hydroxypropylcellulose) (HPC) 99 % of control | endpoint: mean survival time, dose: 100.0 mg/kg/injection, schedule: Q01DX009 (ip), vehicle: Klucel (hydroxypropylcellulose) (HPC) 86 % of control

C=C(C)CCNc1ncnc2nc[nH]c12
inactive: [11] 97 % of control | [12] 101 % of control | [14] 95 % of control

CCCCCCCSc1nc2ccccc2s1
inactive: [1] 95 % of control | [2] 98 % of control | endpoint: mean survival time, dose: 400.0 mg/kg/injection, schedule: Q04DX002 (ip), vehicle: saline with Tween-80 90 % of control

c1ccc(CCC2=Nc3ccccc3CO2)cc1
inactive: [11] 102 % of control | [12] 103 % of control | [14] 102 % of control
